Measurements published in patent publication US20100160391A1, “Substituted Aminopyridines as Fluorescent Reporters for Amide Hydrolases” (priority 2006, published 2010).
Marks after values point to notes of the source that are not given here.

Tested on: not listed separately
Test: Fluorescence quantum yield
Type: physicochemical
Conditions: 10 μM, 1% ethanol in water, excitation 290 nm, standard 3-aminopyridine; SD under ±5%
Method: Quantum yield. The fluorescence quantum yield, φf, was calculated according to the following equation:
ØF=Østd*(I/Istd)*(ODstd/OD)*(n/nstd)^2,
wherein ØF is the quantum yield of the tested fluorescent reporter; Østd is the fluorescence quantum yield of the standard; I and Istd are the integrated emission intensities of the sample and the standard, respectively; OD and ODstd are the absorbance of the sample and standard, respectively, at the desired wavelength λex; and n and nstd are the indexes of refraction of the sample and standard solutions, respectively (Horspool and Song (Eds.), CRC Handbook of Organic Photochemistry I, pp 234-235, CRC Press, Boca Raton, Fla., 1995).
In this example, 3-aminopyridine in water at the maximal excitation wavelength of 290 nm was used as a standard (Østd=0.32, εmax=2800 M^−1 cm^−1) (see, e.g., Weisstuch et al., J. Phys. Chem., 72:1982-1987 (1968)). In order to minimize inner filter effects, the optical densities of samples at the excitation wavelength (λ=290 nm) were kept in the range of 0.095-0.13 (less than 0.150-0.165). The final concentration of each tested sample in a quartz cuvette was 10 μM with 1% ethanol in water, same as that for the standard. The integrated area of fluorescent intensity for the standard or the samples was based on the area between 360 and 500 nm. The difference of the index of refraction between the standard and the sample was neglected because (1) all measurements were performed in the same quartz cuvette and spectrofluorimeter; (2) the final concentrations of the sample and the standard were the same; and (3) the structures of the sample and standard were very similar, i.e., only one pyridine ring. The quantum yields presented in Table 1 were based on calculation of the average of OD and integrated fluorescent intensities of triplicates. The standard deviation for each quantum yield was less than ±5%.

ØF, fluorescence quantum yield	SMILES
0.62	Cc1ccc(N)cn1 [Compound 3, 3-amino-6-methylpyridine]
0.04	Nc1cccnc1F [Compound 4, 3-amino-2-fluoropyridine]
0.72	Nc1ccc(F)nc1 [Compound 5, 5-amino-2-fluoropyridine]
0.27	COc1ncccc1N [Compound 7, 3-amino-2-methoxypyridine]
0.97	COc1ccc(N)c(C)n1 [Compound 8, 3-amino-6-methoxy-2-picoline]

SMILES	ØF, fluorescence quantum yield
Cc1ccncc1N [Compound 2, 3-amino-4-methylpyridine]	0.53

Tested on: not given
Test: not given
Conditions: not given

melting point [°C]	SMILES
130.1 to 130.4	COc1ccc(NC(C)=O)c(C)n1 [Compound 11, N-(6-methoxy-2-methylpyridin-3-yl) acetamide]

Tested on: not listed separately
Test: Maximal excitation and emission wavelengths
Type: physicochemical
Conditions: 50 μM in 0.1 M phosphate buffer, 30° C.; SD ±2 nm
Method: Maximal excitation and emission wavelengths. A stock solution in ethanol of each compound (10 μl, 5 mM) was added to 990 μl of sodium phosphate buffer (0.1 M, pH 8.0, final substrate concentration 50 μM) in a 1-cm quartz cuvette. The quartz cuvette was scanned from 200 to 500 nm for absorption spectra with a Spectra Max M2 spectrophotometer. Maximal excitation and emission wavelengths were obtained from scanning from 250 to 600 nm and 360 to 600 nm by a 2 nm interval at 30° C., respectively.

Em, maximal emission wavelength [nm]	Ex, maximal excitation wavelength [nm]	SMILES
384	290	Cc1ccc(N)cn1 [Compound 3, 3-amino-6-methylpyridine]
374	282	Nc1cccnc1F [Compound 4, 3-amino-2-fluoropyridine]
384	292	Nc1ccc(F)nc1 [Compound 5, 5-amino-2-fluoropyridine]
378	284	COc1ncccc1N [Compound 7, 3-amino-2-methoxypyridine]
392	304	COc1ccc(N)c(C)n1 [Compound 8, 3-amino-6-methoxy-2-picoline]

SMILES	Em, maximal emission wavelength [nm]	Ex, maximal excitation wavelength [nm]
Cc1ccncc1N [Compound 2, 3-amino-4-methylpyridine]	376	280

Target: T1, L-Leucine aminopeptidase from porcine kidney microsomes (Sus scrofa, UniProt P15145)
T1 construct: purchased Sigma-Aldrich L5006; host or cells: porcine kidney microsomes
T1 sequence (P15145 1-963): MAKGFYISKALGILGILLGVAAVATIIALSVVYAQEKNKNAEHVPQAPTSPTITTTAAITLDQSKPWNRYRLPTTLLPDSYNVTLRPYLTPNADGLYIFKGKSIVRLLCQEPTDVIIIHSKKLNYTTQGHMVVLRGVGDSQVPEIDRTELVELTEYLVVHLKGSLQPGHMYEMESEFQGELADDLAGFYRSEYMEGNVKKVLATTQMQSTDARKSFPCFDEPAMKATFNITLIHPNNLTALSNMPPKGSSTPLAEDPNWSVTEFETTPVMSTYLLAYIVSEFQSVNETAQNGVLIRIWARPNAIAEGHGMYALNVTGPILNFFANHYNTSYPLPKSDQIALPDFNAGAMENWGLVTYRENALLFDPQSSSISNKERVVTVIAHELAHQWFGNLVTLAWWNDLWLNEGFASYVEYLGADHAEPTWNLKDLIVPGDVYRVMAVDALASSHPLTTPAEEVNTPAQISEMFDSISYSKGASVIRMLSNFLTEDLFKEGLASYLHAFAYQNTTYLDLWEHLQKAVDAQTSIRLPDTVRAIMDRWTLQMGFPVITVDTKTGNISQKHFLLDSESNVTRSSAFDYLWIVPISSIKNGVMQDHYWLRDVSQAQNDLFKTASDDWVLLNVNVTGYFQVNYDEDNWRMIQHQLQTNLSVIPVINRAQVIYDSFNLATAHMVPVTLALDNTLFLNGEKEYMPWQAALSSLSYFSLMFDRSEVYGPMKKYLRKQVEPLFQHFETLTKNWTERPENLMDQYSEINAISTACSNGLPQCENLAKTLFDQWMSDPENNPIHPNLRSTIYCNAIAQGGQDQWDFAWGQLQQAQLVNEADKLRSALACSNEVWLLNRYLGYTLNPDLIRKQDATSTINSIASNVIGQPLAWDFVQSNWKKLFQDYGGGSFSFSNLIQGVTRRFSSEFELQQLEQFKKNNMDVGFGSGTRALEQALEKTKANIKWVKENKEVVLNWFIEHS
Test: Sensitivity of L-Leucine aminopeptidase toward colorimetric and fluorescent substrates
Type: biochemical
Conditions: 0 min; absorbance 382 nm; 25 μM; protein 1.97 μg/well
Method: Comparison of the sensitivities of L-Leucine aminopeptidase toward colorimetric and fluorescent substrates. In general, all assays were performed in 96-well styrene flat-bottom microtiter plates using a Spectra Max M2 spectrophotometer at 37° C. for 10 min. The total volume of each well was 201 μl containing 0.1 M sodium phosphate buffer (190 μl, pH 7.2), stock or diluted protein solution (10 μl), and 5 mM of the substrate solution (1 μl) in either ethanol for substrates (18) and (19). The lowest detection limit of microsomal L-Leucine aminopeptidase by substrates was determined by the fact that the signal at 10 min was equal to or over 3 times the basal line at 0 min. Colorimetric substrates assays (e.g., (20)) were performed in clear 96-well microtititer plates using an absorbance wavelength of 382 nm. The fluorescent substrates containing 5-amino-2-methoxypyridine (e.g., (19)) were measured at an excitation wavelength (302 nm), emission wavelength (396 nm), and auto cutoff wavelength (325 nm). Similarly, the fluorescent substrates containing 5-amino-2-methoxy-6-methylpyridine (e.g., (18)) were measured at an excitation wavelength (304 nm), emission wavelength (392 nm), and auto cutoff wavelength (325 nm).

base line, Average [OD]	SMILES
0.08	CC(C)C[C@H](N)C(=O)Nc1ccc([N+](=O)[O-])cc1 [Compound 20, L-Leucine-p-nitroanilide]

Same assay, conditions: 0 min; pH 7.2, 37° C., 25 μM; protein 1.97 (18), 0.018 (19) μg/well

base line, Average [RFU/sec]	SMILES
67	COc1ccc(NC(=O)[C@@H](N)CC(C)C)cn1 [Compound 19, N-(6-methoxypyridin-3-yl), (S)-2-amino-4-methylpentanamide]
164	COc1ccc(NC(=O)[C@@H](N)CC(C)C)c(C)n1 [Compound 18, N-(6-methoxy-2-methylpyridin-3-yl), (S)-2-amino-4-methylpentanamide]

Same assay, conditions: 10 min; absorbance 382 nm; 25 μM; protein 1.97 μg/well

signal, Average	SMILES
0.24* OD	CC(C)C[C@H](N)C(=O)Nc1ccc([N+](=O)[O-])cc1 [Compound 20, L-Leucine-p-nitroanilide]

Same assay, conditions: 10 min; pH 7.2, 37° C., 25 μM; protein 1.97 (18), 0.018 (19) μg/well

signal, Average	SMILES
228* RFU/sec	COc1ccc(NC(=O)[C@@H](N)CC(C)C)cn1 [Compound 19, N-(6-methoxypyridin-3-yl), (S)-2-amino-4-methylpentanamide]
494* RFU/sec	COc1ccc(NC(=O)[C@@H](N)CC(C)C)c(C)n1 [Compound 18, N-(6-methoxy-2-methylpyridin-3-yl), (S)-2-amino-4-methylpentanamide]

Same assay, conditions: Table 5

times more sensitive than substrate (20)	SMILES
at least 100 times	COc1ccc(NC(=O)[C@@H](N)CC(C)C)cn1 [Compound 19, N-(6-methoxypyridin-3-yl), (S)-2-amino-4-methylpentanamide]

Same assay, conditions: pH 7.2, 37° C., substrate 25 μM

Protein, lowest detection limit of L-Leucine aminopeptidase (signal at 10 min ≥ 3 times base line) [μg/200 μL]	SMILES
1.97	CC(C)C[C@H](N)C(=O)Nc1ccc([N+](=O)[O-])cc1 [Compound 20, L-Leucine-p-nitroanilide]
0.018	COc1ccc(NC(=O)[C@@H](N)CC(C)C)cn1 [Compound 19, N-(6-methoxypyridin-3-yl), (S)-2-amino-4-methylpentanamide]
1.97	COc1ccc(NC(=O)[C@@H](N)CC(C)C)c(C)n1 [Compound 18, N-(6-methoxy-2-methylpyridin-3-yl), (S)-2-amino-4-methylpentanamide]

Tested on: not listed separately
Test: Molar extinction coefficient of fluorescent reporters
Type: physicochemical
Conditions: H2O containing 1% ethanol, 290 nm, 30° C., 10-50 μM
Method: Molar extinction coefficient. According to Beer's law, Aλ=ε*C*L, where Aλ is the absorbance at wavelength (λ nm); ε is called the molar extinction coefficient; L is the width of the sample cuvette; and C is the concentration of the solute. In this example, a series of concentrations falling between 10 and 50 μM (final concentration) for each fluorescent reporter was used for determination of the molar extinction coefficient. Assays were performed in a quartz cuvette (1 cm optical passage). 10 μl of a stock solution of a reporter in ethanol (1, 2, 3, 4, or 5 mM) was added to 990 μl H2O. The resulting mixture was degassed by sonication with ultrasonic cleaner Model 750 (VWR International; Wester, Pa.) for 10 seconds at a power level of 9. Measurements were performed with a Spectra Max M2 spectrophotometer (Molecular Devices; Sunnyvale, Calif.) at a wavelength of 290 nm. A slope (or extinction coefficient) was obtained by using an average absorbance of triplicate samples.

εmax, molar extinction coefficient [M⁻¹ cm⁻¹]	SMILES
2700	Cc1ccc(N)cn1 [Compound 3, 3-amino-6-methylpyridine]
3670	Nc1cccnc1F [Compound 4, 3-amino-2-fluoropyridine]
2360	Nc1ccc(F)nc1 [Compound 5, 5-amino-2-fluoropyridine]
4670	COc1ncccc1N [Compound 7, 3-amino-2-methoxypyridine]
4130	COc1ccc(N)c(C)n1 [Compound 8, 3-amino-6-methoxy-2-picoline]

SMILES	εmax, molar extinction coefficient [M⁻¹ cm⁻¹]
Cc1ccncc1N [Compound 2, 3-amino-4-methylpyridine]	2580
